Measured values published in PMC10644342, “Improved Antibacterial Activity of 1,3,4-Oxadiazole-Based Compounds That Restrict Staphylococcus aureus Growth Independent of LtaS Function” (ACS Infectious Diseases, 2023).
Values after ≈ are worked out from the molar mass of the structure shown. Like-named read-outs stand apart in the source and are kept apart here.

Assays:
[1] = system: S. epidermidis; experiment: MIC, broth microdilution (CLSI); assay type: cell-based, Staphylococcus epidermidis; conditions: for MIC: read-out: minimum inhibitory concentration
Method: (§1) S. aureus, S. epidermidis, E. faecalis, and E. faecium strains were routinely cultivated on tryptic soy agar (TSA) and grown for 18 h at 37 °C. S. aureus single colonies were subsequently transferred into 2 mL of tryptic soy broth (TSB) and grown for a further 18 h at 37 °C while being shaken at 180 rpm. S. pyogenes, S. agalactiae, and S. dysgalactiae strains were routinely cultured on TSA supplemented with 5% sheep blood and grown for 18 h at 37 °C with 5% CO2. E. coli was grown in LB broth at 37 °C. For LtaS-deficient strains, TSB was supplemented with 0.5 M NaCl to provide an osmotically balanced environment and instead grown at 30 °C. For strains harboring the pRMC2 tetracycline inducible vector,[61] the growth medium was supplemented with 10 μg/mL chloramphenicol and […] anhydrotetracycline hydrochloride (Sigma). Phenylalanine-arginine β-naphthylamide (PAβN) (Sigma) was dissolved in sterile water.
(§2) B. subtilis, staphylococcal, and enterococcal strains were grown in Mueller Hinton broth (MHB), while streptococcal strains were grown in MHB supplemented with 5% laked horse blood. All strains were grown for 18 h at 37 °C. The overnight cultures were subsequently subcultured 1:200 and grown to the exponential phase (OD600nm = 0.5–0.6) in fresh broth. 1771 and its derivatives 9–14 were reconstituted in DMSO and further diluted by performing a 1:2 serial dilution ranging between 256 and 0.125 μg/mL in a 96-well microtiter plate. One hundred microliters of 0.5 McFarland standardized inoculum (approximately equal to 5 × 10^5 cfu) were then dispensed into each well in the 96-well microtiter plate. The plate was incubated for 18 h at 37 °C.

[2] = system: B. subtilis (W168); experiment: MIC, broth microdilution (CLSI); assay type: cell-based; conditions: Bacillus subtilis
Method: as §2

[3] = system: E. faecalis (JH2-2); experiment: MIC, broth microdilution (CLSI); assay type: cell-based; conditions: Enterococcus faecalis
Method: as §1, §2

[4] = system: E. faecium (C68); experiment: MIC, broth microdilution (CLSI); assay type: cell-based; conditions: Enterococcus faecium
Method: as §1, §2

[5] = system: S. agalactiae; experiment: MIC, broth microdilution (CLSI); assay type: cell-based; conditions: Streptococcus agalactiae
Method: as §1, §2

[6] = system: S. dysgalactiae; experiment: MIC, broth microdilution (CLSI); assay type: cell-based; conditions: Streptococcus dysgalactiae
Method: as §1, §2

[7] = system: S. pyogenes; experiment: MIC, broth microdilution (CLSI); assay type: cell-based; conditions: Streptococcus pyogenes
Method: as §1, §2

[8] = system: MRSA strain LAC; experiment: Time-kill kinetic analysis; assay type: cell-based, Staphylococcus aureus; conditions: for effect on growth of LAC: 1× MIC, 24 h, inoculum 5 × 10^5 cfu
Method: Overnight cultures of MRSA strain LAC were subcultured 1:200 and grown to the exponential phase in fresh MHB. These cultures were subsequently diluted to give 500 μL of MHB containing 5 × 10^5 cfu. […] These suspensions were incubated for 24 h at 37 °C, with 50 μL of the suspension serially diluted 1:10 in 450 μL of phosphate buffered saline (PBS) and plated out on TSA at times 0, 1, 2, 4, 6, and 24 h for enumeration.

[9] = system: LTA; experiment: LTA quantification by Western blot; assay type: cell-based, Staphylococcus aureus; conditions: strain LAC, 1× and 4× the MIC
Method: Overnight cultures of S. aureus strains were diluted 1:200 in fresh TSB and grown to an optical density of OD600nm 0.3. […] Vancomycin and daptomycin at 1× and 4× MIC were also included as control antibiotics. Cells were then normalized to have 10 mL of OD600nm 0.6, pelleted at 4000 rpm, and resuspended in 300 μL of PBS containing 200 μg/mL lysostaphin. This suspension was then incubated at 37 °C for 45 min to allow digestion of the cell wall to occur. One hundred microlitres of 4× SDS sample buffer were then added, and the mixture was boiled at 95 °C for 20 min. The insoluble material was then removed by pelleting at 16,000 rpm for 10 min. The supernatant containing LTA was then subjected to SDS-PAGE on a 4–20% Tris-glycine gel (Bio-Rad). The gel was transferred onto a PVDF membrane using a Trans-Blot Turbo Transfer System (Bio-Rad). The membrane was blocked overnight in TBST containing 5% semi-skimmed milk before being incubated with a mouse anti-LTA antibody (Hycult; HM2048; 1:2000 dilution) followed by a goat antimouse-HRP secondary antibody (Proteintech; SA00001; 1:2000 dilution) before being visualized using an Amersham-ECL kit (Cytiva).

[10] = system: E. coli strain K12; experiment: Growth inhibition in combination with PAβN; assay type: cell-based, Escherichia coli; conditions: for concentration at which growth was completely inhibited: E. coli K12, 50 μg/mL PAβN; for MIC: Escherichia coli, E. coli K12, 100 μg/mL PAβN
Method: Phenylalanine-arginine β-naphthylamide (PAβN) is a well-studied efflux pump inhibitor, which can also permeabilize the outer membrane of Gram-negative organisms.[40] […] Without the addition of PAβN (0 μg/mL), neither 1771 nor 13 had any growth inhibitory activity at concentrations up to 64 μg/mL. With the addition of 25 μg/mL of PAβN, the E. coli strain K12 could still grow in the presence of 64 μg/mL of 1771 or 13; however, the growth rate was severely impacted in a dose-dependent manner. […] To further evaluate the Gram-negative coverage of 1771 and 13, we also tested 1771 or 13 in combination with PAβN against Pseudomonas aeruginosa strain PAO1, Klebsiella pneumoniae strain 699 (clinical isolate), and Acinetobacter baumannii strain DF1000 (clinical isolate) (Figure S6a–c).
Figure 8 Permeabilization of the outer membrane renders E. coli susceptible to 1771 and 13. Bacterial growth curves of (a) 1771 and (b) 13 (0–64 μg/mL) in combination with 0, 25, 50, and 100 μg/mL of PAβN. The bacterial growth (OD600nm) was plotted against time following 18 h of growth at 37 °C. The icons represent the mean of three biological replicates.

[11] = Staphylococcus epidermidis, strain 305
[12] = Staphylococcus epidermidis, strain 311
[13] = Staphylococcus epidermidis, strain 319
[14] = Staphylococcus epidermidis, strain 322
[15] = Staphylococcus epidermidis, strain 771
[16] = Staphylococcus epidermidis, strain 780
[17] = Staphylococcus epidermidis, strain RP62A
[18] = NCTC10238, S. dysgalactiae (NCTC 10238)
[19] = NCTC13762, S. dysgalactiae (NCTC 13762)
[20] = NCTC8198, S. pyogenes (NCTC 8198)
[21] = NCTC12048, S. pyogenes (NCTC 12048)
[22] = E. coli K12, 25 μg/mL PAβN, growth rate severely impacted dose-dependently
[23] = E. coli K12, without PAβN (0 μg/mL), 18 h

**Q.** For `O=C(COC(=O)Cc1coc2ccc3ccccc3c12)Nc1nnc(-c2ccc(S(F)(F)(F)(F)F)cc2)o1` [Compound 13, 2-Oxo-2-((5-(4-(pentafluoro-l6-sulfaneyl)phenyl)-1,3,4-oxadiazol-2-yl)amino)ethyl 2-(Naphtho[2,1-b]furan-1-yl)acetate], which MIC90 ([1]; Staphylococcus epidermidis) is on record?
**A.** 1 µg/mL (≈ 1.81 µM)

**Q.** What about the MIC [1, 11] of the same molecule?
**A.** 0.5 to 1 µg/mL (≈ 0.903 to 1.81 µM)

**Q.** What about the MIC [1, 12] of the same molecule?
**A.** 0.5 µg/mL (≈ 0.903 µM)

**Q.** And the MIC [1, 13]?
**A.** 1 µg/mL (≈ 1.81 µM)

**Q.** What about the MIC [1, 14] of the same molecule?
**A.** 0.5 µg/mL (≈ 0.903 µM)

**Q.** What about the MIC [1, 15] of the same molecule?
**A.** 0.5 µg/mL (≈ 0.903 µM)

**Q.** And the MIC [1, 16]?
**A.** 0.5 to 1 µg/mL (≈ 0.903 to 1.81 µM)

**Q.** And the MIC [1, 17]?
**A.** 0.5 µg/mL (≈ 0.903 µM)

**Q.** What about the MIC [2] of the same molecule?
**A.** 0.5 to 1 µg/mL (≈ 0.903 to 1.81 µM)

**Q.** What about the MIC [3] of the same molecule?
**A.** 2 µg/mL (≈ 3.61 µM)

**Q.** What about the MIC [4] of the same molecule?
**A.** > 128 µg/mL

**Q.** And the MIC ([5]; S. agalactiae (18R521))?
**A.** 64 µg/mL (≈ 116 µM)

**Q.** And the MIC ([5]; S. agalactiae (COH1))?
**A.** 128 µg/mL (≈ 231 µM)

**Q.** And the MIC [6, 18]?
**A.** 64 µg/mL (≈ 116 µM)

**Q.** What about the MIC [6, 19] of the same molecule?
**A.** 64 µg/mL (≈ 116 µM)

**Q.** What about the MIC [7, 20] of the same molecule?
**A.** 16 to 32 µg/mL (≈ 28.9 to 57.8 µM)

**Q.** What about the MIC [7, 21] of the same molecule?
**A.** 64 µg/mL (≈ 116 µM)

**Q.** What about the “effect on growth of LAC” value [8] of the same molecule?
**A.** completely inhibited the growth

**Q.** What about the “starting inoculum surviving the exposure” value ([8]; 4× MIC, LAC) of the same molecule?
**A.** 1%

**Q.** What about the “LTA signal by Western blot” value [9] of the same molecule?
**A.** reduction in LTA abundance

**Q.** What about the growth inhibitory concentration [10, 22] of the same molecule?
**A.** > 64 µg/mL

**Q.** And the “concentration at which growth was completely inhibited” value [10]?
**A.** 64 µg/mL

**Q.** And the growth inhibitory concentration [10, 23]?
**A.** > 64 µg/mL

**Q.** What about the MIC [10] of the same molecule?
**A.** 1 µg/mL

**Q.** How did the MIC [1, 11] turn out when `O=C(COC(=O)Cc1coc2ccc3ccccc3c12)Nc1nnc(-c2ccccc2)o1` [Compound 1771, 2-Oxo-2-((5-phenyl-1,3,4-oxadiazol-2-yl)amino)ethyl 2-(Naphtho[2,1-b]furan-1-yl)acetate, reference compound] was run?
**A.** 8 to 16 µg/mL (≈ 18.7 to 37.4 µM)

**Q.** What about the MIC [1, 12] of the same molecule?
**A.** 8 to 16 µg/mL (≈ 18.7 to 37.4 µM)

**Q.** What about the MIC [1, 13] of the same molecule?
**A.** 8 to 16 µg/mL (≈ 18.7 to 37.4 µM)

**Q.** What about the MIC [1, 14] of the same molecule?
**A.** 16 µg/mL (≈ 37.4 µM)

**Q.** What about the MIC [1, 15] of the same molecule?
**A.** 8 to 16 µg/mL (≈ 18.7 to 37.4 µM)

**Q.** What about the MIC [1, 16] of the same molecule?
**A.** 8 to 16 µg/mL (≈ 18.7 to 37.4 µM)

**Q.** And the MIC [1, 17]?
**A.** 8 to 16 µg/mL (≈ 18.7 to 37.4 µM)

**Q.** What about the “MIC range against S. epidermidis strains” value ([1]; collection of S. epidermidis strains) of the same molecule?
**A.** 8 to 16 µg/mL

**Q.** And the MIC [2]?
**A.** 4 to 8 µg/mL (≈ 9.36 to 18.7 µM)

**Q.** What about the MIC [3] of the same molecule?
**A.** 16 µg/mL (≈ 37.4 µM)

**Q.** And the MIC [4]?
**A.** > 128 µg/mL

**Q.** What about the MIC ([5]; S. agalactiae (18R521)) of the same molecule?
**A.** 128 µg/mL (≈ 299 µM)

**Q.** What about the MIC ([5]; S. agalactiae (COH1)) of the same molecule?
**A.** > 128 µg/mL

**Q.** And the MIC [6, 18]?
**A.** > 128 µg/mL

**Q.** What about the MIC [6, 19] of the same molecule?
**A.** 128 µg/mL (≈ 299 µM)

**Q.** What about the MIC [7, 20] of the same molecule?
**A.** 32 to 64 µg/mL (≈ 74.9 to 150 µM)

**Q.** And the MIC [7, 21]?
**A.** 128 µg/mL (≈ 299 µM)

**Q.** What about the “effect on growth of LAC” value [8] of the same molecule?
**A.** completely inhibited the growth

**Q.** What about the killing effect ([8]; 4× MIC, LAC) of the same molecule?
**A.** roughly 65%

**Q.** And the “LTA signal by Western blot” value [9]?
**A.** reduction in LTA abundance

**Q.** What about the growth inhibitory concentration [10, 22] of the same molecule?
**A.** > 64 µg/mL

**Q.** And the “concentration at which growth was completely inhibited” value [10]?
**A.** 64 µg/mL

**Q.** And the growth inhibitory concentration [10, 23]?
**A.** > 64 µg/mL

**Q.** What about the MIC [10] of the same molecule?
**A.** 4 µg/mL
